Where two headings read alike, the source gives them in different places.
How the values were obtained:
[1] = target: Beta Secretase enzyme (BACE) (Homo sapiens, UniProt P56817); experiment: In vitro enzymatic BACE FRET (fluorescence resonance energy transfer) assay; type: biochemical;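 note: fluorescence read after 1 h with 50 nM quenched peptide substrate spanning the BACE cleavage site, in pH 4.2 acetate buffer containing 10% DMSO and nonionic detergent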
[2] = test system: Aβ40 in conditioned medium of cells stably expressing Amyloid Precursor Protein (APP); experiment: In vitro BACE cell-based assay (Aβ40 in conditioned medium, sandwich ELISA);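 note: compounds added as a dilution series, secreted peptide quantified by europium time-resolved fluorescence readout, potency fitted from percent of control versus compound concentration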
[3] = BACE enzyme FRET assay, read-out: BACE1 FRET assay (IC50)
[4] = Homo sapiens, HEK293, HEK cells, cell-based assay, read-out: HEK cell assay (IC50)
[5] = Table 1, read-out: BACE1 FRET assay
[6] = Homo sapiens, HEK293, Table 1, HEK cells, read-out: HEK cell assay
[7] = BACE enzyme assay, read-out: BACE1 FRET assay (IC50)
[8] = Table 2, read-out: BACE1 FRET assay
[9] = Homo sapiens, HEK293, Table 2, HEK cells, read-out: HEK cell assay
[10] = HEK cells, cell-based assay, read-out: HEK cell assay (IC50)

Sequence of Beta Secretase enzyme (BACE) (P56817 46-501): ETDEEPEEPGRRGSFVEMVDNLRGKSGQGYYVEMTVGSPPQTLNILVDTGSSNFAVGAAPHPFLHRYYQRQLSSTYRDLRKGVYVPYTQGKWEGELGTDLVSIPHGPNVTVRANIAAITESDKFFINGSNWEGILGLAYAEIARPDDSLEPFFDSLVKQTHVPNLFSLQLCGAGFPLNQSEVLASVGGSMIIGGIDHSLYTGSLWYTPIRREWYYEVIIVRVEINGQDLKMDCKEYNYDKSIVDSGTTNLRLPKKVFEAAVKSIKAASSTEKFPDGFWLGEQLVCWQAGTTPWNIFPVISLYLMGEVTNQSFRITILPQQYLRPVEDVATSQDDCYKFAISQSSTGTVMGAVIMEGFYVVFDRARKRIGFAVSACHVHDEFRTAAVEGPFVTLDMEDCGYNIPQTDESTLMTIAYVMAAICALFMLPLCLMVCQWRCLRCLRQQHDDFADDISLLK

Row | SMILES | IC50 [1, 3] [µM] | IC50 [2, 4] [µM] | IC50 [1, 7] [µM] | further results
1 | CC(=O)NC(Cc1cccc(F)c1)C(O)CNC1CC2(CC(O)C2)Oc2cnccc21 [compound 237, N-((1S,2R)-1-((3-fluorophenyl)methyl)-2-hydroxy-3-(((1r,3R,4′S)-3-hydroxy-3′,4′-dihydrospiro[cyclobutane-1,2′-pyrano[2,3-c]pyridin]-4′-yl)amino)propyl)acetamide] | 6.42 | 2.45 |  | 
2 | COCC(=O)N[C@@H](Cc1cc(Cl)c2c(c1)OCO2)[C@H](O)CN[C@H]1CC2(CCC2)Oc2ncc(CC(C)(C)C)cc21 [compound 208] | 0.00641 | 0.00996 |  | 
3 | COCC(=O)N[C@@H](Cc1ccc2c(c1)OCO2)[C@H](O)CN[C@H]1CC2(CCC2)Oc2ncc(CC(C)C)cc21 [compound 334] |  |  |  | IC50 [1, 5]: 0.048 µM; IC50 [2, 6]: 0.0672 µM
4 | COCC(=O)N[C@@H](Cc1ccccc1)[C@H](O)CN[C@H]1CC2(CCC2)Oc2ncc(CC3(C(F)(F)F)CC3)cc21 [compound 319] |  |  |  | IC50 [1, 5]: 0.0558 µM; IC50 [2, 6]: 0.309 µM
5 | COCC(=O)NC(Cc1cc(F)cc(F)c1)C(O)CNC1CC2(CCC2)Oc2ncc(C(O)C(F)(F)F)cc21 (centres unmarked) [compound 349] |  |  |  | IC50 [1, 5]: 0.166 µM; IC50 [2, 6]: 0.139 µM
6 | CC(F)C(=O)N[C@@H](Cc1ccc2c(c1)OCO2)[C@H](O)CN[C@H]1CC2(CCC2)Oc2ncc(CC(C)(C)C)cc21 (stereo partly drawn) [compound 452, N-((1S,2R)-1-(1,3-benzodioxol-5-ylmethyl)-3-(((4′S)-6′-(2,2-dimethylpropyl)-3′,4′-dihydrospiro[cyclobutane-1,2′-pyrano[2,3-b]pyridin]-4′-yl)amino)-2-hydroxypropyl)-2-fluoropropanamide] |  |  |  | IC50 [1, 8]: 0.016 µM; IC50 [2, 9]: 0.039 µM
7 | C[C@@H](F)C(=O)N[C@@H](Cc1ccc2c(c1)OCO2)[C@H](O)CN[C@H]1CC2(CCC2)Oc2ncc(CC(C)(C)C)cc21 [Example 484, (2R)-N-((1S,2R)-1-(1,3-benzodioxol-5-ylmethyl)-3-(((4′S)-6′-(2,2-dimethylpropyl)-3′,4′-dihydrospiro[cyclobutane-1,2′-pyrano[2,3-b]pyridin]-4′-yl)amino)-2-hydroxypropyl)-2-fluoropropanamide] |  |  |  | IC50 [1, 8]: 0.029 µM; IC50 [2, 9]: 0.056 µM
8 | CC(=O)N[C@@H](Cc1ccc2c(c1)OC(F)(F)O2)[C@H](O)CN[C@H]1CC2(CCC2)Oc2ncc(CC(C)(C)C)cc21 [compound 292] | 0.0325 | 0.159 |  | 
9 | CC#Cc1cccc(C[C@H](NC(=O)[C@@H](C)OC)[C@H](O)CN[C@H]2CC3(CCC3)Oc3ncc(CC(C)C)cc32)c1 [compound 803] |  |  |  | IC50 ([1]; BACE enzyme assay, IC50's in uM, read-out: BACE1 FRET assay): 0.022 µM; IC50 ([2]; Homo sapiens, HEK293, HEK cell-based assay, IC50's in uM, read-out: HEK cell assay): 0.132 µM
10 | CO[C@H](C)C(=O)N[C@@H](Cc1ccc(F)cc1)[C@H](O)CN[C@H]1CC2(CCC2)Oc2ncc(CC(C)C)cc21 [compound 333] |  |  |  | IC50 [1, 5]: 0.029 µM; IC50 [2, 6]: 0.0479 µM
11 | COCC(=O)N[C@@H](Cc1ccc2c(c1)OCO2)[C@H](O)CN[C@H]1CC2(CCC2)Oc2ncc(CC(C)(C)C(F)(F)F)cc21 [compound 362] |  |  |  | IC50 [1, 5]: 0.0601 µM; IC50 [2, 6]: 0.123 µM
12 | CO[C@H](C)C(=O)N[C@@H](Cc1ccc2c(c1)OCO2)[C@H](O)CN[C@H]1CC2(CCC2)Oc2ncc(CCC(F)(F)F)cc21 [compound 194] | 1.07 | 1.52 |  | 
13 | COCC(=O)N[C@@H](Cc1ccc2c(c1)OCO2)[C@H](O)CN[C@H]1CC2(CCC2)Oc2c1cc(CC(C)(C)C)nc2N1CCCC1 [compound 130] |  | 0.055 | 0.0541 | 
14 | CC(C)(C)Cc1cnc2c(c1)C(NCC(O)C(Cc1ccc(F)cc1)NC(=O)CF)CC1(CC(O)C1)O2 [compound 230, N-((1S,2R)-3-(((1s,3S,4′S)-6′-(2,2-dimethylpropyl)-3-hydroxy-3′,4′-dihydrospiro[cyclobutane-1,2′-pyrano[2,3-b]pyridin]-4′-yl)amino)-1-((4-fluorophenyl)methyl)-2-hydroxypropyl)-2-fluoroacetamide] | 0.00424 | 0.01 |  | 
15 | CC(=O)N[C@@H](Cc1ccccc1)[C@H](O)CN[C@H]1CC2(CCC2)Oc2ncc(CC(C)(F)F)cc21 [compound 272] | 0.0151 | 0.0147 |  | 
16 | CO[C@H](C)C(=O)N[C@@H](Cc1ccc(F)c(Cl)c1)[C@H](O)CN[C@H]1CC2(CCC2)Oc2ncc(CC(C)(C)F)cc21 [compound 72] |  | 0.0605 | 0.0291 | 
17 | COCC(=O)N[C@@H](Cc1cc(F)cc(F)c1)[C@H](O)CN[C@H]1CC2(CCCC2)C(=O)c2ccc(CC(C)(C)C)cc21 [compound 89] |  | 0.0586 | 0.00495 | 
18 | COCCNc1nc(CC(C)(C)C)cc2c1OC1(CCC1)C[C@@H]2NC[C@@H](O)[C@H](Cc1ccc(F)cc1)NC(C)=O [compound 149, N-((1S,2R)-3-(((4′S)-6′-(2,2-dimethylpropyl)-8′-((2-(methyloxy)ethyl)amino)-3′,4-dihydrospiro[cyclobutane-1,2′-pyrano[2,3-c]pyridin]-4′-yl)amino)-1-((4-fluorophenyl)methyl)-2-hydroxypropyl)acetamide] |  | 0.0272 | 0.0479 | 
19 | CO[C@H](C)C(=O)N[C@@H](Cc1ccc2c(c1)OCO2)[C@H](O)CN[C@H]1CC2(CCC2)Oc2nc(F)c(CC(C)C)cc21 [compound 336] |  |  |  | IC50 [1, 5]: 0.135 µM; IC50 [2, 6]: 0.404 µM
20 | COC(=O)N[C@@H](Cc1ccc2c(c1)OCO2)[C@H](O)CN[C@H]1CC2(CCC2)Oc2ncc(CC(C)(C)C)cc21 [compound 289] | 0.0775 | 0.196 |  | 
21 | CC(=O)N[C@@H](Cc1cccc(F)c1)[C@H](O)CN[C@H]1CC2(CCC2)Oc2ncc(C[C@H](C)C(F)(F)F)cc21 [compound 314] | 0.00419 | 0.0113 |  | 
22 | CC(C)(C)Cc1cnc2c(c1)[C@@H](NC[C@@H](O)[C@H](Cc1ccc3c(c1)OCO3)NC(=O)C(Cl)Cl)CC1(CCC1)O2 [compound 100] |  |  | 0.0127 | IC50 [2, 10]: 0.0714 µM
23 | CO[C@H](C)C(=O)N[C@@H](Cc1cc(F)cc(F)c1)[C@H](O)CN[C@H]1CC2(CCC2)Oc2ncc(CC(F)(F)F)cc21 [compound 346] |  |  |  | IC50 [1, 5]: 0.0102 µM; IC50 [2, 6]: 0.0471 µM
24 | CO[C@H](C)C(=O)N[C@@H](Cc1cccc(F)c1)[C@H](O)CN[C@H]1CC2(CCC2)Oc2c(F)cc(CC(C)(C)C)cc21 [compound 222] | 0.00445 | 0.0127 |  | 
25 | CC(=O)N[C@@H](Cc1ccc(F)cc1)[C@H](O)CN[C@@H]1c2cc(CC(C)(C)C)cnc2OC2(CCC2)[C@H]1F [compound 357] |  |  |  | IC50 [1, 5]: 13.3 µM; IC50 [2, 6]: > 10 µM

Continued, in another order:

Row | IC50 [1, 3] [µM] | IC50 [2, 4] [µM] | IC50 [1, 7] [µM] | SMILES | further results
26 |  | 0.0186 | 0.00549 | COCC(=O)N[C@@H](Cc1ccc(F)cc1)[C@H](O)CN[C@H]1CC2(CCC2)Oc2ncc([C@H](F)C(C)(C)C)cc21 [compound 179] | 
27 |  | 9.73 | 7.47 | CC(=O)N[C@@H](Cc1ccc(F)cc1)[C@H](O)CN[C@H]1CC2(CCC2)Oc2ncc(NC(=O)C(C)C)cc21 [compound 86] | 
28 |  | 0.065 | 0.011 | COCC(=O)N[C@@H](Cc1ccc(F)cc1)[C@H](O)CNC1CC2(CC(F)(F)C2)Oc2ncc(CC(C)(C)C)cc21 (some centres unmarked) [compound 53] | 
29 |  | 0.0433 | 0.0186 | COCC(=O)N[C@@H](Cc1ccc(F)cc1)[C@H](O)CN[C@H]1CC2(CCC2)Oc2c(F)cc(CC(C)(C)C#N)cc21 [compound 172] | 
30 | 0.206 | 0.375 |  | CC(=O)N[C@@H](Cc1ccc(F)cc1)[C@H](O)CN[C@H]1CC2(CCC2)Oc2ccc(CC(C)(C)F)cc21 [compound 200] | 
31 |  | 0.0359 | 0.0269 | COCC(=O)N[C@@H](Cc1ccnc(C(F)(F)F)c1)[C@H](O)CN[C@H]1CC2(CCC2)Oc2ncc(CC(C)(C)C)cc21 [compound 163] | 
32 | 0.00215 | 0.0314 |  | COCC(=O)N[C@@H](Cc1ccc(Cl)cc1)[C@H](O)CN[C@H]1CC2(CCC2)Oc2ncc(CC(C)(C)C)cc21 [compound 212] | 
33 | 0.076 | 0.0872 |  | COCC(=O)N[C@@H](Cc1ccc2c(c1)OCO2)[C@H](O)CN[C@H]1CC2(CCC2)Oc2ncc(CC(C)(F)F)cc21 [compound 276] | 
34 |  | 0.0575 | 0.082 | CNc1nc(CC(C)(C)C)cc2c1OC1(CCC1)C[C@@H]2NC[C@@H](O)[C@H](Cc1ccc(F)cc1)NC(=O)[C@@H](C)OC [compound 137] | 
35 | 0.178 | 0.152 |  | CC(=O)N[C@@H](Cc1ccc(F)cc1)[C@H](O)CN[C@H]1CC2(CCC2)Oc2cnc(CC(C)(C)F)cc21 [compound 254] | 
36 |  | 0.0311 | 0.0446 | COCC(=O)N[C@@H](Cc1ccc(F)cc1)[C@H](O)CN[C@H]1CC2(CCC2)Oc2ccc(CC(C)(C)C#N)cc21 [compound 162] | 
37 |  | 0.128 | 0.258 | CO[C@@H](C(=O)N[C@@H](Cc1ccc(F)cc1)[C@H](O)CN[C@H]1CC2(CCC2)Oc2ncc(CC(C)(C)C)cc21)C(F)(F)F [compound 63] | 
38 |  | 0.016 | 0.00701 | CC(=O)N[C@@H](Cc1ccc2c(c1)OCO2)[C@H](O)CN[C@H]1CC2(CCC2)Oc2ncc([C@H](F)C(C)(C)C)cc21 [compound 182] | 
39 | 0.00508 | 0.00599 |  | CO[C@H](C)C(=O)N[C@@H](Cc1cccc(F)c1)[C@H](O)CN[C@H]1CC2(CCC2)Oc2ncc(CC(C)(C)C(F)F)cc21 [compound 219] | 
40 | 0.0389 |  |  | COC(=O)C1CC2(C1)CC(NCC(O)C(Cc1ccc(F)cc1)NC(C)=O)c1cc(CC(C)(C)C)cnc1O2 [compound 258, methyl (1r,3S,4′S)-4′-(((2R,3S)-3-(acetylamino)-4-(4-fluorophenyl)-2-hydroxybutyl)amino)-6′-(2,2-dimethylpropyl)-3′,4′-dihydrospiro[cyclobutane-1,2′-pyrano[2,3-b]pyridine]-3-carboxylate] | IC50 [2, 10]: 0.0929 µM

Source: patent publication US8163909B2, “Substituted hydroxyethyl amine compounds as beta-secretase modulators and methods of use” (Amgen Inc., priority 2007, dated 2012)
